For data set [1], the target named is T1, recombinant human 5-HT6 receptor (Homo sapiens, UniProt P50406).
T1 construct: expressed in transfected cells
Put plainly: Radioligand binding studies: competition for [3H]LSD binding in membranes of HEK293 cells expressing the receptor. The following applies: [3H]LSD (5 nM), HEK293 cell membranes, 60 min at 37° C., pH 7.4; read-out: pKi for 5-HT6 (converted). As for the experimental part: The binding activity of compounds of this invention in vitro was determined as follows. Duplicate determinations of ligand affinity are made by competing for binding of [^3H]LSD in cell membranes derived from HEK293 cells stably expressing recombinant human 5-HT6 receptor. This cell line was prepared by the method described by Monsma et al., Molecular Pharmacology, Vol. 43 pp. 320-327 (1993).
All determinations were made in assay buffer containing 50 mM Tris-HCl, 10 mM MgSO4, 0.5 mM EDTA, 1 mM ascorbic acid, pH 7.4 at 37° C., in a 250 microliter reaction volume. Assay tubes containing [^3H] LSD (5 nM), competing ligand, and membrane were incubated in a shaking water bath for 60 min. at 37° C., filtered onto Packard GF-B plates (pre-soaked with 0.3% PEI) using a Packard 96 well cell harvester and washed 3 times in ice cold 50 mM Tris-HCl. Bound [^3H] LSD was determined as radioactive counts per minute using Packard TopCount.
Displacement of [^3H]LSD from the binding sites was quantified by fitting concentration-binding data to a 4-parameter logistic equation:
[formula] where Hill is the Hill slope, [ligand] is the concentration of competing radioligand and IC50 is the concentration of radioligand producing half-maximal specific binding of radioligand. The specific binding window is the difference between the Bmax and the basal parameters.

A word on the melting point: it is the temperature of the solid-liquid transition.

Structures can show the parent of a compound that is named as a salt.

T1 sequence (P50406 whole entry): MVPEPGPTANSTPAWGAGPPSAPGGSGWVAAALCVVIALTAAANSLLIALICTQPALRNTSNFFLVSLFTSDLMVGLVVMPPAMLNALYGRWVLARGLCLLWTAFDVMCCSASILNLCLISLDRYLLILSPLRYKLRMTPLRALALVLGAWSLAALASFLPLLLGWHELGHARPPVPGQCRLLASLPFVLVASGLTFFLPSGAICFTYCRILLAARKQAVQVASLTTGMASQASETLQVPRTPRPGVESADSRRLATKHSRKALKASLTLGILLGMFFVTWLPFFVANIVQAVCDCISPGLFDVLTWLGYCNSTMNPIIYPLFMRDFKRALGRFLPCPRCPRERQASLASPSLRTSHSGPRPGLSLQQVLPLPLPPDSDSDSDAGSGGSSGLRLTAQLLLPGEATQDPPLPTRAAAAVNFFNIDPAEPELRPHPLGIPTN

In the case of `O=C1CCCc2ccccc2N1Cc1cccc(N2CCNCC2)c1` (as salt: maleate) [Compound 17, 1-(3-Piperazin-1-yl-benzyl)-1,3,4,5-tetrahydrobenzo[b]azepin-2-one], the melting point is 149 to 150 °C.

As to `COc1cc(CN2C(=O)CCc3ccccc32)cc(N2CCNCC2)c1` [Compound 4, 1-(3-Methoxy-5-piperazin-1-yl-benzyl)-3,4-dihydro-1H-quinolin-2-one], the Ki in data set [1] is about 1 nM.

The values above are taken from US7476675B2, “Quinolinone derivatives and uses thereof” (Roche Palo Alto LLC, priority 2003, dated 2009).
